Measured values taken from patent publication US20230348421A1, “5-HT2A RECEPTOR INHIBITOR OR INVERSE AGONIST, PREPARATION METHOD THEREFOR, AND APPLICATION THEREOF” (GENEORA PHARMA (SHIJIAZHUANG) CO., LTD., priority 2020, published 2023).

The compounds below were run against T1, 5-HT2A receptor (Homo sapiens (Human), UniProt P28223) (assay: Screening for 5-HT2A inverse agonistic activity (NIH3T3-5-HT2A R cells, Bright-Glo luciferase, 120 h)). Settings: NIH3T3-5HT2AR cells, cell inhibition rate.
Format: cell-based
Experimental: • Cell lines: Adherent cells NIH3T3-5-HT2A R • Cell culture medium: DMEM+10% FBS (purchased from GBICO) • Cell culture plate: White-wall clear-bottom 96-well plate (purchased from Perkin Elmer) • Detection kit: Bright-Glo™ Luciferase (purchased from Promega) • Detection instrument: BioTek multifunctional microplate reader
NIH3T3-5HT2AR cells in the logarithmic growth phase were seeded into a white-wall clear-bottom 96-well plate at a density of 1000 cells per well, and cultured overnight in a 37° C., 5% CO2 incubator. […] On the sixth day, a Bright-Glo™ Luciferase reagent with a volume equal to that of cell sap was added to the cells, and the cells were incubated at room temperature in the dark for 20 min. […] The data was processed with GraphPad Prism 7.0 to obtain a cell inhibition rate curve, and the IC50 was calculated.
Cell inhibition rate (%)=[100−(Lum test drug−Lum culture solution)/(Lum cell control−Lum culture solution)×100]%

T1 sequence (P28223 whole entry): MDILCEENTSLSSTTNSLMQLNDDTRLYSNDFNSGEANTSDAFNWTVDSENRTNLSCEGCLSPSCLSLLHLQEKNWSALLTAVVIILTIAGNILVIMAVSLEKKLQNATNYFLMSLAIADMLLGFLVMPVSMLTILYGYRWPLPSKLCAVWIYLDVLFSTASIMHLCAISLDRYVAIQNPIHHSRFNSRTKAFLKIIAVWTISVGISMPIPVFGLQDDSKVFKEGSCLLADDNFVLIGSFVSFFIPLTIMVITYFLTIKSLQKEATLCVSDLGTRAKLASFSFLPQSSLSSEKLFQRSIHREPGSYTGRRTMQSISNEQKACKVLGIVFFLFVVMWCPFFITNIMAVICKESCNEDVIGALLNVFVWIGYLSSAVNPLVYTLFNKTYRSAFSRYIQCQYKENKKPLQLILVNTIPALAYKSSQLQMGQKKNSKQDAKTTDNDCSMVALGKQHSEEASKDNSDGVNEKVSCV

| Compound | IC50 |
| --- | --- |
| CCN1CCC(N(Cc2ccc(F)cn2)C(=O)NCc2ccc(OCC(F)(F)F)cc2)CC1 [Compound 70] | 12.3 nM |
| CN1CCC(N(Cc2ccc(F)cn2)C(=O)NCc2ccc(OC(CF)CF)cc2)CC1 [Compound 45] | 7.04 nM |
| CN1CCC(N(Cc2ccc(F)cn2)C(=O)NCc2ccc3c(c2)CC(C)(C)O3)CC1 [Compound 24] | 2.54 nM |
| CN1CCC(N(Cc2ccc(F)cc2)C(=O)NCc2ccc(OCC(F)F)cc2)CC1 [Compound 57] | 6.83 nM |
| CN1CCC(N(Cc2ccc(F)cn2)C(=O)NCc2ccc(OCCCCF)cc2)CC1 [Compound 62] | 32.8 nM |
| CN1CCC(N(Cc2ccc(F)cn2)C(=O)NCc2ccc(OCCF)cc2)CC1 [Compound 60] | 16.4 nM |
| CN1CCC(N(Cc2ccc(F)cc2)C(=O)NCc2ccc3c(c2)CC(C)(C)O3)CC1 [Compound 31] | 30 nM |
| CN1CCC(N(Cc2ccc(F)cn2)C(=O)NCc2ccc(OCCCC(F)F)cc2)CC1 [Compound 94] | 7.59 nM |
| CN1CCC(N(Cc2ncc(F)cc2F)C(=O)NCc2ccc(OCCCC(F)F)cc2)CC1 [Compound 95] | 27.9 nM |
| CC(C)C1Cc2cc(CNC(=O)N(Cc3ccc(F)cn3)C3CCN(C)CC3)ccc2O1 (centres unmarked) [Compound 41] | 4.29 nM |
| CN1CCC(N(Cc2ccc(F)cn2)C(=O)NCc2ccc(OCC(C)(C)F)cc2)CC1 [Compound 47] | 9.22 nM |
| CN1CCC(N(Cc2ccc(F)cn2)C(=O)NCc2ccc(OCCC(F)(F)F)cc2)CC1 [Compound 55] | 2.23 nM |
| CC(C)COc1ccc(CNC(=O)N(Cc2ccc(F)cn2)C2CCN(C)CC2)nc1 [Compound 96] | 26.4 nM |

These compounds were tested against T1, 5-HT2A receptor (assay: Test for 5-HT2A antagonistic activity (calcium ion antagonism, FLIPR, CHO-K1/5-HT2A cells)). Settings: 100 nM a-methyl-5-HT, Ca2+ signal.
Format: cell-based
Experimental: • Cell lines: CHO-K1/5-HT2A (Chempartner) • Cell culture medium: DMEM/F12+10% FBS (purchased from GBICO) • Cell culture plate: 384-well Assay Plate (purchased from Corning) • Detection kit: FLIPR® Calcium 4 Assay Kit (purchased from Molecular Devices)
After that, centrifugation was performed to remove the culture medium in the cell culture plate. Dye was added, and the cells were incubated in a 37° C., 5% CO2 incubator for another 1 h. The cell culture plate was placed on the FLIPR. A compound to be tested was added, and the Ca^2+ signal was detected, wherein the compound to be tested was subjected to 3-fold gradient dilution with PBS to obtain 10 concentrations, with the highest concentration of 10 uM, and double replicate wells were set up. […] In order to determine the test stability, risperidone was used as a positive control. The data were processed with GraphPad Prism 7.0 to obtain a cell inhibition rate curve, and the IC50 was calculated.
Inhibition rate (%)=100%−[(signal value of the compound to be tested−signal value of the test solution)/(the maximum signal value−the signal value of the test solution)]×100%

| Compound | IC50 |
| --- | --- |
| CN1CCC(N(Cc2ccc(F)cc2F)C(=O)NCc2ccc(OCC(F)F)cc2)CC1 [Compound 74] | 8.95 nM |
| CN1CCC(N(Cc2ccc(F)cc2F)C(=O)NCc2ccc3c(c2)CC(C)(C)O3)CC1 [Compound 76] | 20.7 nM |
| CN1CCC(N(Cc2ccc(F)cn2)C(=O)NCc2ccc3c(c2)CCC(C)(C)O3)CC1 [Compound 98] | 21.2 nM |
| CCN1CCC(N(Cc2ccc(F)cn2)C(=O)NCc2ccc(OCC(F)(F)F)cc2)CC1 [Compound 70] | 8.09 nM |
| CN1CCC(N(Cc2ccc(F)cn2)C(=O)NCc2ccc(OC(CF)CF)cc2)CC1 [Compound 45] | 2.42 nM |
| CN1CCC(N(Cc2ccc(F)cn2)C(=O)NCc2ccc3c(c2)CC(C)(C)O3)CC1 [Compound 24] | 3.49 nM |
| CC(C)c1cc2cc(CNC(=O)N(Cc3ccc(F)cn3)C3CCN(C)CC3)ccc2o1 [Compound 50] | 20.9 nM |
| CN1CCC(N(Cc2ccc(F)cc2)C(=O)NCc2ccc(OCC(F)F)cc2)CC1 [Compound 57] | 6.41 nM |
| CN1CCC(N(Cc2ccc(F)cn2)C(=O)NCc2ccc(OCCCCF)cc2)CC1 [Compound 62] | 2.35 nM |
| CC(C)COc1ccc(CNC(=O)N(CCCN(C)C)Cc2ccc(F)cc2)cc1 [Compound 14] | 2.17 nM |
| CN1CCC(N(Cc2ccc(F)cn2)C(=O)NCc2ccc(OCCF)cc2)CC1 [Compound 60] | 2.11 nM |
| CN1CCC(N(Cc2ccc(F)cc2)C(=O)NCc2ccc3c(c2)CC(C)(C)O3)CC1 [Compound 31] | 17.4 nM |
| CC(C)COc1ccc(CNC(=O)N(Cc2ncc(F)cn2)C2CCN(C)CC2)cc1 [Compound 13] | 1.92 nM |
| CN1CCC(N(Cc2ccc(F)cn2)C(=O)NCc2ccc(O)cc2)CC1 [Compound 3] | 11.6 nM |
| CN1CCC(N(Cc2ccc(F)cn2)C(=O)NCc2ccc(OCCCC(F)F)cc2)CC1 [Compound 94] | 4.29 nM |
| CN1CCC(N(Cc2ncc(F)cc2F)C(=O)NCc2ccc(OCCCC(F)F)cc2)CC1 [Compound 95] | 5.13 nM |
| CC(C)C1Cc2cc(CNC(=O)N(Cc3ccc(F)cn3)C3CCN(C)CC3)ccc2O1 (centres unmarked) [Compound 41] | 9.98 nM |
| CN1CCC(N(Cc2ccc(F)cn2)C(=O)NCc2ccc(OCC(C)(C)F)cc2)CC1 [Compound 47] | 3.13 nM |
| CN1CCC(N(Cc2ccc(F)cn2)C(=O)NCc2ccc(OCCC(F)(F)F)cc2)CC1 [Compound 55] | 4.7 nM |
| CN1CCC(N(Cc2ccc(F)cn2)C(=O)NCc2cc(Cl)c3c(c2)CC(C)(C)O3)CC1 [Compound 71] | 9.52 nM |
| CC(C)COc1ccc(CNC(=O)N(Cc2ccc(F)cn2)C2CCN(C)CC2)nc1 [Compound 96] | 11.4 nM |
| CC(C)COc1ccc(CNC(=O)N(Cc2ccc(F)nn2)C2CCN(C)CC2)cc1 [Compound 91] | 14.7 nM |
| CC(C)COc1ccc(CNC(=O)N(Cc2ccc(F)cc2)C2CCN(C)CC2)cn1 [Compound 20] | 9.14 nM |

Each compound was assayed against hERG potassium channels (Homo sapiens (Human), UniProt Q12809) (assay: hERG inhibitory activity, whole-cell patch clamp in CHO-hERG cells). Settings: not given.
Sequence of hERG potassium channels (Q12809 whole entry): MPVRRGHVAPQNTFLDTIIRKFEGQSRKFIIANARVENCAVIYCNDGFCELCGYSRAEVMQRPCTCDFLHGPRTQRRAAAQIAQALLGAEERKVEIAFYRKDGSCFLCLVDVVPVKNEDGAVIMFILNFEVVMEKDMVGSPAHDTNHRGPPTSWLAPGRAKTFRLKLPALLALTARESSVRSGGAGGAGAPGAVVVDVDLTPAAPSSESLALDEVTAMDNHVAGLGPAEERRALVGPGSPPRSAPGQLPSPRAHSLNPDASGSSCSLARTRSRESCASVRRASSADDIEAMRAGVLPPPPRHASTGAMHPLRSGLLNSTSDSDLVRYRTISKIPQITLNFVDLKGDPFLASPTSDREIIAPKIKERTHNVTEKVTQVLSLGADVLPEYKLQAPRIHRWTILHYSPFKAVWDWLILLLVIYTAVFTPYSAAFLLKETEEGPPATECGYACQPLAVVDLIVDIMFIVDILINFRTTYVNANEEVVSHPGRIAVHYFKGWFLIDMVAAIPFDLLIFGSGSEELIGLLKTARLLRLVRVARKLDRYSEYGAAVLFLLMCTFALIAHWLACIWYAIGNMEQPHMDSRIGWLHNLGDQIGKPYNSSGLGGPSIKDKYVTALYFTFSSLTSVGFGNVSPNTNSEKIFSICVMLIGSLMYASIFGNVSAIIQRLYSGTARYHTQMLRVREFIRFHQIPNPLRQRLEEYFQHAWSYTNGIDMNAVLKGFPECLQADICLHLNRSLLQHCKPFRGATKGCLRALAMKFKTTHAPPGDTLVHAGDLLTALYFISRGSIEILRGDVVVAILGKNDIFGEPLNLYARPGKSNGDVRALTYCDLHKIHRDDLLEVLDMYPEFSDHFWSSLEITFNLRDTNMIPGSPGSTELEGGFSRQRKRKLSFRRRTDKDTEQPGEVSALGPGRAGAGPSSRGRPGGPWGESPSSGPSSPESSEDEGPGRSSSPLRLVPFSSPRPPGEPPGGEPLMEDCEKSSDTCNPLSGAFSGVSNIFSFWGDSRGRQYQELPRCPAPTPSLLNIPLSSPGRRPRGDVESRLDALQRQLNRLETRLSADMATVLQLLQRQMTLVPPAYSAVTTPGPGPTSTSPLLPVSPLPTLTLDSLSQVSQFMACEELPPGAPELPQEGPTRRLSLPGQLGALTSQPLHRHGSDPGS

| Compound | IC50 |
| --- | --- |
| CN1CCC(N(Cc2ccc(F)cn2)C(=O)NCc2ccc(OCCCF)cc2)CC1 [Compound 17] | 1550 nM |

Same assay, conditions: read-out: hERG inhibitory activity IC50; CHO-hERG cells, whole-cell patch clamp, tail current at -50 mV

| Compound | IC50 |
| --- | --- |
| CN1CCC(N(Cc2ccc(F)cn2)C(=O)NCc2ccc3c(c2)CCC(C)(C)O3)CC1 [Compound 98] | 1460 nM |
| CCN1CCC(N(Cc2ccc(F)cn2)C(=O)NCc2ccc(OCC(F)(F)F)cc2)CC1 [Compound 70] | 500 nM |
| CN1CCC(N(Cc2ccc(F)cn2)C(=O)NCc2ccc(OC(CF)CF)cc2)CC1 [Compound 45] | 5500 nM |
| CN1CCC(N(Cc2ccc(F)cn2)C(=O)NCc2ccc3c(c2)CC(C)(C)O3)CC1 [Compound 24] | 3610 nM |
| CC(C)c1cc2cc(CNC(=O)N(Cc3ccc(F)cn3)C3CCN(C)CC3)ccc2o1 [Compound 50] | 550 nM |
| CN1CCC(N(Cc2ccc(F)cn2)C(=O)NCc2ccc(OCCCCF)cc2)CC1 [Compound 62] | 1430 nM |
| CN1CCC(N(Cc2ccc(F)cn2)C(=O)NCc2ccc(OCCF)cc2)CC1 [Compound 60] | > 10000 nM |
| CN1CCC(N(Cc2ccc(F)cc2)C(=O)NCc2ccc3c(c2)CC(C)(C)O3)CC1 [Compound 31] | 1850 nM |
| CC(C)COc1ccc(CNC(=O)N(Cc2ncc(F)cn2)C2CCN(C)CC2)cc1 [Compound 13] | 1300 nM |
| CN1CCC(N(Cc2ccc(F)cn2)C(=O)NCc2ccc(O)cc2)CC1 [Compound 3] | > 10000 nM |
| CC(C)C1Cc2cc(CNC(=O)N(Cc3ccc(F)cn3)C3CCN(C)CC3)ccc2O1 (centres unmarked) [Compound 41] | 790 nM |
| CN1CCC(N(Cc2ccc(F)cn2)C(=O)NCc2ccc(OCC(C)(C)F)cc2)CC1 [Compound 47] | 1390 nM |
| CN1CCC(N(Cc2ccc(F)cn2)C(=O)NCc2ccc(OCCC(F)(F)F)cc2)CC1 [Compound 55] | 690 nM |
| CN1CCC(N(Cc2ccc(F)cn2)C(=O)NCc2cc(Cl)c3c(c2)CC(C)(C)O3)CC1 [Compound 71] | 3320 nM |
| CC(C)COc1ccc(CNC(=O)N(Cc2ccc(F)nn2)C2CCN(C)CC2)cc1 [Compound 91] | 580 nM |
| CC(C)COc1ccc(CNC(=O)N(Cc2ccc(F)cc2)C2CCN(C)CC2)cn1 [Compound 20] | 680 nM |
